Some test systems named below: MCF7 breast; MDA-MB-231 breast; HS 578T breast; 786-0 renal; NCI-H23 lung; HCC-2998 colon; UACC-62 melanoma; OVCAR-5 ovarian; SN12C renal; K-562 leukemia.
Common to all, as to assay: inhibition of tumour cell growth, NCI panel, 48 h

This note sets out measurements from PubChem BioAssay (NCI).

The structures appear in SMILES notation.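 1) Cells in 96-well plates. 2) Compound, 48 h, 5 concentrations. 3) Linear interpolation between surrounding doses. 4) Unreached endpoint = highest concentration. GI50 marks 50% less growth. TGI: total growth inhibition.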

For the molecule `O=C(Nc1ccc(-c2nc(-c3cccc(OCCN4CCOCC4)c3)c(-c3ccnc(Br)c3)[nH]2)cc1)c1ccccc1`, the GI50 with MCF7 breast was 0.74 µM; in the experiment on MDA-MB-231 breast, 2.84 µM; in the experiment on HS 578T breast, 0.267 µM; in the experiment with 786-0 renal, 0.741 µM; with NCI-H23 lung, 2.47 µM; with HCC-2998 colon it was 2.76 µM. Moreover, the GI50 with UACC-62 melanoma was 1.91 µM; in the experiment on OVCAR-5 ovarian, 3.73 µM; in the experiment with SN12C renal, 6.94 µM. Also, the TGI in the experiment on MCF7 breast was 3.14 µM; in the experiment on MDA-MB-231 breast, greater than 100 µM; in the experiment with HS 578T breast, 0.885 µM; in the experiment on 786-0 renal, 2.39 µM; in the experiment with NCI-H23 lung, 8.78 µM; in the experiment on HCC-2998 colon it was greater than 100 µM. Moreover, the TGI in the experiment with UACC-62 melanoma was 6.19 µM; with OVCAR-5 ovarian, greater than 100 µM; in the experiment on SN12C renal it was greater than 100 µM.
With `C=C1C(=O)OC2CC(C)C3CC(O)OC(OCC)C3(C)CC12` (stereo unspecified), the TGI with MCF7 breast came to 26.7 µM; with MDA-MB-231 breast, 34.8 µM; in the experiment on HS 578T breast it was 72.8 µM; with 786-0 renal, 25.1 µM; in the experiment with NCI-H23 lung, 30.9 µM; with HCC-2998 colon, 30.6 µM. The TGI is greater than 52.1 µM in the experiment on UACC-62 melanoma, greater than 57.4 µM with K-562 leukemia, 54.4 µM in the experiment on OVCAR-5 ovarian and 33.2 µM in the experiment on SN12C renal.
As for `CCCCCC[C@H](C)Nc1nc2ccccc2c2occc12`, the GI50 in the experiment on MCF7 breast was greater than 100 µM; with MDA-MB-231 breast, 10.6 µM; with HS 578T breast, 12.8 µM; with 786-0 renal, 9.87 µM; with NCI-H23 lung it was 0.576 µM; in the experiment with HCC-2998 colon, 1.4 µM. The GI50 is 11.6 µM with UACC-62 melanoma, 16.3 µM in the experiment on K-562 leukemia, 5.54 µM in the experiment on OVCAR-5 ovarian and 11.2 µM in the experiment with SN12C renal. For the same molecule, the TGI in the experiment on MCF7 breast was greater than 100 µM; in the experiment on MDA-MB-231 breast, 24 µM; in the experiment with HS 578T breast, 37.7 µM; in the experiment on 786-0 renal, 21.7 µM; in the experiment with NCI-H23 lung, 7.23 µM; in the experiment with HCC-2998 colon, 8.94 µM. Besides, the TGI with UACC-62 melanoma was 24.1 µM; in the experiment with K-562 leukemia, greater than 100 µM; in the experiment with OVCAR-5 ovarian, 20.3 µM; in the experiment with SN12C renal, 23.9 µM.
`COc1ccc(C(O)c2cc3c(N)c(C(=O)Nc4cccc(Cl)c4)sc3nc2C)cc1` (stereo unspecified): the GI50 is 1.11 µM with MCF7 breast; 1.41 µM in the experiment with MDA-MB-231 breast; 0.825 µM in the experiment with HS 578T breast; 1.67 µM with 786-0 renal; 1.82 µM in the experiment with NCI-H23 lung; 1.76 µM in the experiment with HCC-2998 colon. Also, the GI50 in the experiment on UACC-62 melanoma is 2.14 µM; with K-562 leukemia it was 1.03 µM; in the experiment on OVCAR-5 ovarian it was 1.98 µM; in the experiment on SN12C renal, 2.02 µM. Also, the TGI in the experiment on MCF7 breast was greater than 67.2 µM; with MDA-MB-231 breast it was greater than 33.1 µM; in the experiment on 786-0 renal, greater than 39.6 µM; in the experiment with NCI-H23 lung, greater than 50.1 µM; in the experiment on HCC-2998 colon, greater than 35.9 µM; with UACC-62 melanoma, greater than 80.2 µM. Besides, the TGI is greater than 37.5 µM in the experiment with K-562 leukemia, greater than 48.7 µM in the experiment on OVCAR-5 ovarian and greater than 72.7 µM in the experiment on SN12C renal.
Turning to `CCN(c1cc(-c2ccc(CN3CCOCC3)cc2)cc(C(=O)NCc2c(C)cc(C)[nH]c2=O)c1C)C1CCOCC1`, the GI50 with MCF7 breast was 24.2 µM; in the experiment with MDA-MB-231 breast it was 20.4 µM; in the experiment with HS 578T breast, 22.2 µM; with 786-0 renal, 17.1 µM; in the experiment with NCI-H23 lung it was 59.4 µM; in the experiment with HCC-2998 colon, 20.4 µM. Further, the GI50 with UACC-62 melanoma was 16 µM; with K-562 leukemia it was 32.6 µM; with OVCAR-5 ovarian, 37.7 µM; with SN12C renal it was 26.9 µM. Moreover, the TGI with MCF7 breast was greater than 100 µM; in the experiment with MDA-MB-231 breast it was 44.7 µM; in the experiment on HS 578T breast it was greater than 71.2 µM; in the experiment on 786-0 renal, 40.7 µM; with NCI-H23 lung, greater than 100 µM; in the experiment with HCC-2998 colon, 49.7 µM. Moreover, the TGI in the experiment with UACC-62 melanoma is 31.6 µM; with K-562 leukemia it was greater than 100 µM; with OVCAR-5 ovarian it was greater than 82.5 µM; in the experiment on SN12C renal, greater than 64.5 µM.
Turning to `Cc1nc2ccc(NC(=O)CCNC(=O)CCCc3ccc(CC(C(=O)O)C(=O)O)cc3)cc2s1`, the GI50 in the experiment on MCF7 breast, with MDA-MB-231 breast, in the experiment with HS 578T breast, in the experiment with 786-0 renal, with NCI-H23 lung and in the experiment on HCC-2998 colon was greater than 100 µM throughout. Also, the GI50 in the experiment on UACC-62 melanoma, with K-562 leukemia, with OVCAR-5 ovarian and in the experiment with SN12C renal was greater than 100 µM each time. Besides, the TGI with MCF7 breast, in the experiment with MDA-MB-231 breast, in the experiment on HS 578T breast, with 786-0 renal, in the experiment with NCI-H23 lung and with HCC-2998 colon was greater than 100 µM throughout. The TGI with UACC-62 melanoma, in the experiment on K-562 leukemia, in the experiment with OVCAR-5 ovarian and in the experiment on SN12C renal was greater than 100 µM each time.
Take `COc1cc(NC(=O)CCSc2nc3ccc(C)cc3c(=O)n2Cc2ccccc2)cc(OC)c1OC`: the GI50 with MCF7 breast is 32 µM; in the experiment on MDA-MB-231 breast it was 4.2 µM; in the experiment on HS 578T breast, 2.18 µM; in the experiment with 786-0 renal, 4.17 µM; with NCI-H23 lung, 26.6 µM; in the experiment on HCC-2998 colon, greater than 100 µM. For the same molecule, the GI50 was 15.7 µM with UACC-62 melanoma, greater than 100 µM in the experiment with K-562 leukemia, greater than 100 µM with OVCAR-5 ovarian and 78 µM with SN12C renal. Moreover, the TGI in the experiment with MCF7 breast is greater than 100 µM; with MDA-MB-231 breast it was 52.8 µM; with HS 578T breast, 6.74 µM; in the experiment on 786-0 renal, 19.2 µM; in the experiment on NCI-H23 lung, greater than 100 µM; in the experiment with HCC-2998 colon it was greater than 100 µM. Moreover, the TGI with UACC-62 melanoma, in the experiment on K-562 leukemia, with OVCAR-5 ovarian and with SN12C renal was greater than 100 µM in each case.
Consider `CN(C)CCSS(=O)(=O)O`, for which the TGI in the experiment with MCF7 breast, in the experiment on MDA-MB-231 breast, with HS 578T breast, in the experiment with 786-0 renal, in the experiment with NCI-H23 lung and in the experiment on UACC-62 melanoma was greater than 100 µM throughout. The TGI in the experiment on K-562 leukemia, with OVCAR-5 ovarian and in the experiment with SN12C renal was greater than 100 µM throughout.
